These are literature values, as cited in US12377071B2, “Methods of treating conditions related to the S1P1 receptor” (Arena Pharmaceuticals, Inc., priority 2015, dated 2025).

For the data set the following is noted: clinical trials; cited from earlier work.

`CCCCCCCCc1ccc(CCC(N)(CO)CO)cc1` [FTY720, fingolimod]: the Adverse event result is reported as “transient asymptomatic bradycardia”.
